Several values for one entry are separate records, joined by “and”; a condition that tells them apart may be missing. Equal entries are not always repeated.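 The compound was tested at five concentrations on cells cultured in 96-well plates, with a 48-hour exposure period. GI50 is the concentration that inhibits growth by half. TGI marks complete inhibition of growth.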
Legend:
Test in all cases: NCI tumour cell line growth inhibition, 48 h
HT29 colon = system: HT29 colon
KM20L2 colon = system: KM20L2 colon
RPMI-8226 leukemia = system: RPMI-8226 leukemia
SK-MEL-5 melanoma = system: SK-MEL-5 melanoma
SK-OV-3 ovarian = system: SK-OV-3 ovarian
SNB-78 CNS = system: SNB-78 CNS
SF-539 CNS = system: SF-539 CNS
IGROV1 ovarian = system: IGROV1 ovarian
SNB-19 CNS = system: SNB-19 CNS
MCF7 breast = system: MCF7 breast
HCT-15 colon = system: HCT-15 colon
A498 renal = system: A498 renal
SN12C renal = system: SN12C renal
HOP-62 NSCLC = system: HOP-62 NSCLC
SN12K1 renal = system: SN12K1 renal
CCRF-CEM leukemia = system: CCRF-CEM leukemia
SF-268 CNS = system: SF-268 CNS
XF 498 CNS = system: XF 498 CNS
SK-MEL-28 melanoma = system: SK-MEL-28 melanoma
OVCAR-5 ovarian = system: OVCAR-5 ovarian
HL-60(TB) leukemia = system: HL-60(TB) leukemia
UACC-62 melanoma = system: UACC-62 melanoma
DMS 114 small cell lung = system: DMS 114 small cell lung
DLD-1 colon = system: DLD-1 colon
OVCAR-4 ovarian = system: OVCAR-4 ovarian
NCI/ADR-RES ovarian = system: NCI/ADR-RES ovarian
HOP-18 NSCLC = system: HOP-18 NSCLC
P388/ADR leukemia = system: P388/ADR leukemia
RXF 393 renal = system: RXF 393 renal
MOLT-4 leukemia = system: MOLT-4 leukemia
EKVX NSCLC = system: EKVX NSCLC
UO-31 renal = system: UO-31 renal
COLO 205 colon = system: COLO 205 colon
A549 NSCLC = system: A549 NSCLC
KM12 colon = system: KM12 colon
M19-MEL melanoma = system: M19-MEL melanoma
NCI-H23 lung = system: NCI-H23 lung
SK-MEL-2 melanoma = system: SK-MEL-2 melanoma
HCC-2998 colon = system: HCC-2998 colon
HOP-92 NSCLC = system: HOP-92 NSCLC
P388 leukemia = system: P388 leukemia
HCT-116 colon = system: HCT-116 colon
LOX IMVI melanoma = system: LOX IMVI melanoma
SF-295 CNS = system: SF-295 CNS
OVCAR-8 ovarian = system: OVCAR-8 ovarian
NCI-H226 lung = system: NCI-H226 lung
SNB-75 CNS = system: SNB-75 CNS
NCI-H522 lung = system: NCI-H522 lung
K-562 leukemia = system: K-562 leukemia
U251 CNS = system: U251 CNS
MALME-3M melanoma = system: MALME-3M melanoma
CAKI-1 renal = system: CAKI-1 renal
SW-620 colon = system: SW-620 colon
UACC-257 melanoma = system: UACC-257 melanoma
DMS 273 small cell lung = system: DMS 273 small cell lung
OVCAR-3 ovarian = system: OVCAR-3 ovarian
NCI-H460 lung = system: NCI-H460 lung
M14 melanoma = system: M14 melanoma
TK-10 renal = system: TK-10 renal
SR leukemia = system: SR leukemia
LXFL 529 NSCLC = system: LXFL 529 NSCLC
ACHN renal = system: ACHN renal
786-0 renal = system: 786-0 renal
RXF-631 renal = system: RXF-631 renal

Compound: CC(=O)OC1CC2(O)C(CCC3(C)C(c4ccc(=O)oc4)CCC32O)C2(C)CCC(O)C=C12 (stereo unspecified)
- GI50 (HT29 colon): 59.2 nM
- GI50 (KM20L2 colon): 37.5 nM
- TGI (KM20L2 colon): 191 nM and 187 nM
- GI50 (RPMI-8226 leukemia): 37.5 nM
- TGI (RPMI-8226 leukemia): 134 nM and 80.3 nM
- GI50 (SK-MEL-5 melanoma): 37.5 nM
- TGI (SK-MEL-5 melanoma): 46 nM and 40 nM
- GI50 (SK-OV-3 ovarian): 43.5 nM
- TGI (SK-OV-3 ovarian): 104 nM and 117 nM
- GI50 (SNB-78 CNS): 37.5 nM
- TGI (SNB-78 CNS): 470 nM and 86.6 nM
- GI50 (SF-539 CNS): 37.5 nM
- TGI (SF-539 CNS): 38.3 nM and 41.4 nM
- GI50 (IGROV1 ovarian): 37.5 nM
- TGI (IGROV1 ovarian): 351 nM and 242 nM
- TGI (SNB-19 CNS): 225 nM and 244 nM
- GI50 (MCF7 breast): 17.3 nM
- TGI (MCF7 breast): 188 nM and 181 nM
- GI50 (HCT-15 colon): 37.5 nM
- TGI (HCT-15 colon): 209 nM and 147 nM
- TGI (A498 renal): 310 nM and 176 nM
- GI50 (SN12C renal): 37.5 nM
- GI50 (HOP-62 NSCLC): 12.3 nM
- TGI (HOP-62 NSCLC): 105 nM and 48 nM
- GI50 (SN12K1 renal): 37.5 nM
- TGI (SN12K1 renal): 119 nM and 393 nM
- GI50 (CCRF-CEM leukemia): 3.87 nM and 37.5 nM
- TGI (CCRF-CEM leukemia): 51.9 nM and 40.5 nM
- GI50 (SF-268 CNS): 7.96 nM
- TGI (SF-268 CNS): 149 nM and 43.7 nM
- GI50 (XF 498 CNS): 13.8 nM
- TGI (XF 498 CNS): 26 nM and 55.3 nM
- TGI (SK-MEL-28 melanoma): 289 nM and 171 nM
- GI50 (OVCAR-5 ovarian): 73.8 nM
- TGI (OVCAR-5 ovarian): 277 nM and 260 nM
- GI50 (HL-60(TB) leukemia): 37.5 nM
- TGI (HL-60(TB) leukemia): 14.4 nM and 71 nM
- GI50 (UACC-62 melanoma): 37.5 nM
- TGI (UACC-62 melanoma): 82.7 nM and 47.8 nM
- TGI (DMS 114 small cell lung): 0.0164 µM
- GI50 (DLD-1 colon): 15.2 nM
- TGI (DLD-1 colon): 107 nM and 58.3 nM
- GI50 (OVCAR-4 ovarian): 37.5 nM
- TGI (OVCAR-4 ovarian): 68.6 nM and 49.5 nM
- GI50 (NCI/ADR-RES ovarian): 37.5 nM
- TGI (NCI/ADR-RES ovarian): 143 nM and 255 nM
- GI50 (HOP-18 NSCLC): 37.5 nM
- TGI (HOP-18 NSCLC): 75 nM and 436 nM
- GI50 (P388/ADR leukemia): 69.5 µM
- TGI (P388/ADR leukemia): 261 µM
- GI50 (RXF 393 renal): 6.24 nM
- TGI (RXF 393 renal): 27 nM and 39.9 nM
- TGI (MOLT-4 leukemia): 0.0054 µM
- GI50 (EKVX NSCLC): 37.5 nM
- TGI (EKVX NSCLC): 123 nM and 47.7 nM
- GI50 (UO-31 renal): 66.7 nM
- TGI (UO-31 renal): 131 nM and 95 nM
- TGI (COLO 205 colon): 168 nM and 139 nM
- GI50 (A549 NSCLC): 6.24 nM
- TGI (A549 NSCLC): 0.0272 µM
- GI50 (KM12 colon): 33 nM and 81.4 nM
- TGI (KM12 colon): 213 nM and 676 nM
- GI50 (M19-MEL melanoma): 37.5 nM
- TGI (M19-MEL melanoma): 187 nM and 111 nM
- GI50 (NCI-H23 lung): 37.5 nM
- TGI (NCI-H23 lung): 31.1 nM and 70.4 nM
- GI50 (SK-MEL-2 melanoma): 37.5 nM
- TGI (SK-MEL-2 melanoma): 54.2 nM and 97.6 nM
- GI50 (HCC-2998 colon): 43.7 nM
- TGI (HCC-2998 colon): 357 nM and 195 nM
- GI50 (HOP-92 NSCLC): 37.5 nM
- TGI (HOP-92 NSCLC): 374 nM and 86.9 nM
- GI50 (P388 leukemia): 63.8 µM
- TGI (P388 leukemia): 245 µM
- GI50 (HCT-116 colon): 4.98 nM
- TGI (HCT-116 colon): 104 nM and 47.7 nM
- GI50 (LOX IMVI melanoma): 37.5 nM
- TGI (LOX IMVI melanoma): 126 nM and 57.3 nM
- GI50 (SF-295 CNS): 37.5 nM
- TGI (SF-295 CNS): 98.2 nM and 63.5 nM
- GI50 (OVCAR-8 ovarian): 37.5 nM
- TGI (OVCAR-8 ovarian): 92.6 nM and 47.2 nM
- GI50 (NCI-H226 lung): 80.8 nM
- TGI (NCI-H226 lung): 184 nM and 183 nM
- GI50 (SNB-75 CNS): 37.5 nM
- TGI (SNB-75 CNS): 188 nM and 116 nM
- TGI (NCI-H522 lung): 6.26 nM
- GI50 (K-562 leukemia): 12.8 nM
- TGI (K-562 leukemia): 256 nM and 178 nM
- GI50 (U251 CNS): 37.5 nM
- TGI (U251 CNS): 151 nM and 109 nM
- GI50 (MALME-3M melanoma): 11.2 nM
- TGI (MALME-3M melanoma): 0.0469 µM
- GI50 (CAKI-1 renal): 15 nM
- TGI (CAKI-1 renal): 124 nM and 42.5 nM
- GI50 (SW-620 colon): 10 nM
- TGI (SW-620 colon): 170 nM and 56.1 nM
- GI50 (UACC-257 melanoma): 37.5 nM
- TGI (UACC-257 melanoma): 105 nM and 823 nM
- GI50 (DMS 273 small cell lung): 37.5 nM
- TGI (DMS 273 small cell lung): 71.4 nM and 47.8 nM
- TGI (OVCAR-3 ovarian): 0.0229 µM
- GI50 (NCI-H460 lung): 37.5 nM
- TGI (NCI-H460 lung): 27.1 nM and 38.8 nM

Compound: CCCCCCCCCCCCCC(=O)OCC1OC(OC)C(NC(=O)N(CCCl)N=O)C(O)C1O (stereo unspecified)
- TGI (HT29 colon): 50.4 µM
- TGI (KM20L2 colon): 52200 nM
- TGI (M14 melanoma): 39.6 µM
- TGI (RPMI-8226 leukemia): 42600 nM
- TGI (SK-MEL-5 melanoma): 45100 nM
- TGI (SNB-78 CNS): 90700 nM
- TGI (SF-539 CNS): 12900 nM
- TGI (IGROV1 ovarian): > 100000 nM
- TGI (TK-10 renal): 90.7 µM
- TGI (SNB-19 CNS): > 100000 nM
- TGI (HCT-15 colon): > 100000 nM
- TGI (A498 renal): 65600 nM
- TGI (SN12C renal): 76.3 µM
- TGI (HOP-62 NSCLC): 75900 nM
- TGI (CCRF-CEM leukemia): 30200 nM
- TGI (SF-268 CNS): 40100 nM
- TGI (XF 498 CNS): 36700 nM
- TGI (SK-MEL-28 melanoma): 59400 nM
- TGI (OVCAR-5 ovarian): 91100 nM
- TGI (UACC-62 melanoma): 20100 nM
- TGI (DMS 114 small cell lung): 57.3 µM
- TGI (DLD-1 colon): 81300 nM
- TGI (OVCAR-4 ovarian): 50700 nM
- TGI (SR leukemia): 26.7 µM
- TGI (HOP-18 NSCLC): > 100000 nM
- TGI (LXFL 529 NSCLC): 38.8 µM
- TGI (RXF 393 renal): 32100 nM
- TGI (MOLT-4 leukemia): 29.4 µM
- TGI (UO-31 renal): 51700 nM
- TGI (COLO 205 colon): 98500 nM
- TGI (A549 NSCLC): 58.2 µM
- TGI (KM12 colon): 64400 nM
- TGI (NCI-H23 lung): 28600 nM
- TGI (SK-MEL-2 melanoma): 71200 nM
- TGI (HCC-2998 colon): 65600 nM
- TGI (HCT-116 colon): 38200 nM
- TGI (LOX IMVI melanoma): 25700 nM
- TGI (ACHN renal): 49.1 µM
- TGI (OVCAR-8 ovarian): 61100 nM
- TGI (NCI-H226 lung): 75700 nM
- TGI (SNB-75 CNS): 73500 nM
- TGI (K-562 leukemia): 56800 nM
- TGI (U251 CNS): 52400 nM
- TGI (MALME-3M melanoma): 56.8 µM
- TGI (CAKI-1 renal): > 100000 nM
- TGI (SW-620 colon): 30900 nM
- TGI (UACC-257 melanoma): 30200 nM
- TGI (786-0 renal): 17 µM
- TGI (RXF-631 renal): 53.9 µM
- TGI (DMS 273 small cell lung): 47100 nM
- TGI (OVCAR-3 ovarian): 53.2 µM
- TGI (NCI-H460 lung): 25100 nM

Source: PubChem BioAssay (NCI)
